Key:
patients = system: patients; parameters: method as in PMID 33293081; conditions: clinical study; cited from earlier work
human serum albumin = experiment: Albumin binding, ultrafiltration assay in human blood plasma; assay type: in vitro ADME
Experimental: The logD values, cell uptake and internalization as well as PSMA-binding affinities (KD values) of [^225Ac]Ac-SibuDAB and [^225Ac]Ac-PSMA-617 (~50 kBq/nmol) were determined according to previously reported protocols (Supplementary Material: Sections S3–S5). Relative albumin-binding affinities were determined using an ultrafiltration assay according to an adapted version of a recently published protocol (Supplementary Material: Section S6).
Table S1. PSMA-binding affinity expressed as KD values determined for SibuDAB and PSMA-617 labeled with actinium-225 or lutetium-177.
Radioligand KD Value [nM] 95% Confidence interval n […]
Purpose: The affinity of [225Ac]Ac-SibuDAB to serum albumin in mouse and human blood plasma was assessed and compared to that of [177Lu]Lu-SibuDAB to determine the impact of the radionuclide on the albumin-binding properties of SibuDAB.
Methods: Relative albumin-binding affinities were determined using an ultrafiltra-tion assay according to a slightly adapted version of a published protocol. The concen-tration of mouse serum albumin (MSA) and human serum albumin (HSA) in samples of mouse and human plasma, respectively, was determined using a DRI-CHEM Analyzer (FUJIFILM, 4000i). […] The activity in the retained protein fraction (A bound), in the filtrate (Afiltrate) and in the filter unit (Afilter) were measured separately in a γ-counter (Perkin Elmer Wallac Wizard 1480). […]

Compound	patients with hematotoxicity up to Grade 3/4 (patients)	relative albumin-binding affinity, higher than for [177Lu]Lu-SibuDAB (human serum albumin)
O=C([O-])CN1CCN(CC(=O)[O-])CCN(CC(=O)NCC2CCC(C(=O)NC(Cc3ccc4ccccc4c3)C(=O)NCCCCC(NC(=O)NC(CCC(=O)O)C(=O)O)C(=O)O)CC2)CCN(CC(=O)[O-])CC1.[225Ac+3] (centres unmarked) [[^225Ac]Ac-PSMA-617]	about 30%	–
CC(C)Cc1ccc(C(C)C(=O)NC(CCN)C(=O)NCCCCC(NC(=O)CN2CCN(CC(=O)[O-])CCN(CC(=O)[O-])CCN(CC(=O)[O-])CC2)C(=O)NCC2CCC(C(=O)NC(Cc3ccc4ccccc4c3)C(=O)NCCCCC(NC(=O)NC(CCC(=O)O)C(=O)O)C(=O)O)CC2)cc1.[225Ac+3] (centres unmarked) [[^225Ac]Ac-SibuDAB]	–	1.4 fold

Reference: paper PMC9688344, “[^225Ac]Ac-SibuDAB for Targeted Alpha Therapy of Prostate Cancer: Preclinical Evaluation and Comparison with [^225Ac]Ac-PSMA-617” (Cancers, 2022)
